In US20250288583A1, “Treatment of Mucus Hypersecretion” (priority 2024, published 2025):
Entries after “also recorded” stand apart in the source; their conditions may differ.

Experiments:
ocular margins = experiment: Cooling duration bioassay on eyelids/ocular margins; type: in vivo, human; conditions: for Duration of effects on the ocular margins, on average: test concentration 1 mg/mL
Excerpt: FIG. 1. Comparison of cooling duration of various p-menthanecarboxamide analogs on philtrum skin versus ocular margins. The philtrum skin is keratinized, but the ocular margins are not. The test substances numbered 1 to 11 are: D-Ala-OiPr, Gly-OiPr, D-Ala-OEt, D-Ala-OMe, D-Ala-GlynPr, GlynPr, D-Ala-OnBu, GlynBu, GlyOEt, L-Ala-OEt, and N-Me-D-Ala-OEt, respectively. Two outliers (1 and 2) were identified as preferred embodiments because they preferentially cool the ocular margins. The nasal cavity surfaces like the ocular margins are not keratinized.
Cooling agents have been assayed in various ways depending on intended use. For example, for the skin the test substance can be applied on philtrum skin, using descriptions of coolness on a scale of 0 to 3. For the ocular surface, the active ingredient can be applied to the closed eyelids using a wipe. In the oral cavity, drug applications are on the posterior dorsal surface of the tongue. For the oropharyngeal surface, the cooling agent may be applied as an orally disintegrating tablet. The ability of a cooling agent to antagonize a noxious stimuli may also be tested, using nociception from citric acid or chili pepper sauce. Responses are usually measured using a Visual Analog Scale with a numerical rating. For nasal responses, however, such procedures have not been standardized. Some endpoints to consider are open and comfortable breathing, the presence or absence of sniffles, and the secretion of phlegm.

hTRPM8 channel = target: T1, hTRPM8 channel (Homo sapiens, UniProt Q7Z2W7); experiment: TRPM8 receptor assay, calcium entry (Fluo-8, FLIPR) in transfected CHO cells; type: cell-based; conditions: for Potency Relative to L-menthol: ratio of TRPM8 EC50 values, menthol = 1.0
T1 construct: host or cells: CHO cells
T1 sequence (Q7Z2W7 whole entry): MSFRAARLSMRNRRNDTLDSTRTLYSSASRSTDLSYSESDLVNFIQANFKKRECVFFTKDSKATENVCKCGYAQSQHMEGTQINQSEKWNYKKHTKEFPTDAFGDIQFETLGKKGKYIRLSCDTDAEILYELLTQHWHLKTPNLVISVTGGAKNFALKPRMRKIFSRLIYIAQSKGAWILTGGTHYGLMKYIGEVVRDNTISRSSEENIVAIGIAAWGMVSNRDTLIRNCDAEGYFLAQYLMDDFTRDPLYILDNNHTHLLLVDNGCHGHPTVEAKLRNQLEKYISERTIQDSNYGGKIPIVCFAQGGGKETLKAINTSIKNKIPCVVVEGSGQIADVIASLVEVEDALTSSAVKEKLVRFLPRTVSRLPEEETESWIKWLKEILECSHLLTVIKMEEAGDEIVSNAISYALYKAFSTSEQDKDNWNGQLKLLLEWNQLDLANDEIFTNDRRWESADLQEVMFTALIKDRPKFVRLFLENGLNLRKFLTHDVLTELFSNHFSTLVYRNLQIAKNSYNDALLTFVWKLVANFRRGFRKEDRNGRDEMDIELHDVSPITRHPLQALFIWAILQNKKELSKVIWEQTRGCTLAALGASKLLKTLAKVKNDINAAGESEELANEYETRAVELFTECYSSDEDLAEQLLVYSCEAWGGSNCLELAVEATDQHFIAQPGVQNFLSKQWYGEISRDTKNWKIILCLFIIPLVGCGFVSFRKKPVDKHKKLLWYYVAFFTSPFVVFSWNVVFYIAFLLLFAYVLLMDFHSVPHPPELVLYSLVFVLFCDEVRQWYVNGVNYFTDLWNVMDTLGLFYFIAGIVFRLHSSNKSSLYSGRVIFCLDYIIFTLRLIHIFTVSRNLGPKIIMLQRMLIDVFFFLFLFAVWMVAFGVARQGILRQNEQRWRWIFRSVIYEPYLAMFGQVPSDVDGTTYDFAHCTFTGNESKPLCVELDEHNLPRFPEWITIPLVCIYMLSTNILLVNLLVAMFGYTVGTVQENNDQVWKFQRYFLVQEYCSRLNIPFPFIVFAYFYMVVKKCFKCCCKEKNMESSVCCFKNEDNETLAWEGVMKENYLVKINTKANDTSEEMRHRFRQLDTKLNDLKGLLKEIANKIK

TRPA1 = target: T2, TRPA1 (Homo sapiens, UniProt O75762); experiment: TRPA1 specificity assay in transfected cells; type: cell-based; conditions: FIG. 5; mustard oil positive control
T2 construct: expressed in transfected cells
T2 sequence (O75762 whole entry, species assumed): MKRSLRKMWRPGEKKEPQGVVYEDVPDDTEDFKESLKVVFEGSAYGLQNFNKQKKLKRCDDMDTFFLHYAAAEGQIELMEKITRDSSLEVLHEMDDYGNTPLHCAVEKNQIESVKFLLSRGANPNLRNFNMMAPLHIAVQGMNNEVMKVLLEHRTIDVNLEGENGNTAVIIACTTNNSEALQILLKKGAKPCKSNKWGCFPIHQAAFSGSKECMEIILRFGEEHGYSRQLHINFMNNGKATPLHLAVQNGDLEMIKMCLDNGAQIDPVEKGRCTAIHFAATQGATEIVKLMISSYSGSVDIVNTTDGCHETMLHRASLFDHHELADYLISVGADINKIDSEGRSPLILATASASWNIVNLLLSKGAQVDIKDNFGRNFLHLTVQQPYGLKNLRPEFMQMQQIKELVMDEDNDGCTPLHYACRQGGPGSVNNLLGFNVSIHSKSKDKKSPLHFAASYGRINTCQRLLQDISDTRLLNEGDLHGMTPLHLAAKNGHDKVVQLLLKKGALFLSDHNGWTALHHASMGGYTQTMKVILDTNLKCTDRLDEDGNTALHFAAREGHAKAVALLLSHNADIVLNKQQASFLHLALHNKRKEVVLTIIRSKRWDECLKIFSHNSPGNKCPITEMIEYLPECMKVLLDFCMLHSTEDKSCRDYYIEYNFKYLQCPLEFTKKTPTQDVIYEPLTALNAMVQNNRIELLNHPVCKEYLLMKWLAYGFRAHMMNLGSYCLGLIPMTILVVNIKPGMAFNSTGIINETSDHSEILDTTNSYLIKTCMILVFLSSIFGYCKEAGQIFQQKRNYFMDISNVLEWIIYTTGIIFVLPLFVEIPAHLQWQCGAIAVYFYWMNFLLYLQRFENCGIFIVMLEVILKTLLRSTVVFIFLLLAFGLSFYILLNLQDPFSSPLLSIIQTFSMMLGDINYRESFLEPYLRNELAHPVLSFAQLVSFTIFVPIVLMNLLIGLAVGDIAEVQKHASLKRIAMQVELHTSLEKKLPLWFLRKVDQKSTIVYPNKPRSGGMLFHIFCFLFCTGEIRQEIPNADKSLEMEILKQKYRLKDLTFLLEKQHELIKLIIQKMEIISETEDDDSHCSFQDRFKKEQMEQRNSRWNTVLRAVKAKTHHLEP

oral cavity = conditions: Johnson et al., 2018; cited from earlier work
Stability of the solid = type: physicochemical; conditions: room temperature and physiological pH

| Compound | Eyelids/Ocular Surface (ocular margins; Table 6, cooling duration, non-keratinized) | Duration of effects on the ocular margins, on average (ocular margins) | EC50 (hTRPM8 channel; CHO cells transfected with hTRPM8, Fluo-8 calcium kit, FLIPR) | Potency Relative to L-menthol (hTRPM8 channel) | Response of cells transfected with TRPA1 (TRPA1) | Ocular Surface (ocular margins; Table 7, Gly esters) | Duration on the ocular surface (ocular margins; test concentration increased from 1 mg/mL to 1.5 mg/mL) | Activity on TRPM8 transfected cells (hTRPM8 channel; FIG. 5) | Sensory qualities in the oral cavity compared with WS-5 (oral cavity) | Stability (Stability of the solid) |
| --- | --- | --- | --- | --- | --- | --- | --- | --- | --- | --- |
| CC(C)OC(=O)[C@@H](C)NC(=O)[C@@H]1C[C@H](C)CC[C@H]1C(C)C [D-Ala-OiPr, (R)-2-[((1R,2S,5R)-2-isopropyl-5-methyl-cyclohexanecarbonyl)amino]-propionic acid i-propyl ester] | 360 min | ~5 h | 260 nM | 14.6 | inactive |  |  |  |  |  |
| CC(C)OC(=O)CNC(=O)[C@@H]1C[C@H](C)CC[C@H]1C(C)C [GlyOiPr, [((1R,2S,5R)-2-isopropyl-5-methyl-cyclohexanecarbonyl)-amino]-acetic acid isopropyl ester] |  | ~5 h |  | 7.6 | do not respond; also recorded: activates TRPM8 but not TRPV1 or TRPA1 | 300 min | about 6.5 hours | active | more refreshing and less bitter than WS-5 | stable at room temperature and physiological pH |
